Assay results published in ChEMBL document CHEMBL1201862, “PubChem BioAssay data set” (2004).
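Method: 48-hour compound exposure of cells in 96-well plates, five concentrations, linear interpolation of endpoints. The concentration for 50% growth inhibition is given as GI50.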 Active and inactive are the calls of the source. Rule as the data show it: active = GI50 up to about 1.1 µM and inactive = higher.

Assays:
Test in all cases: NCI anticancer screen, dose series, 48 h
786-0 = test system: 786-0
A498 = test system: A498
A549 = test system: A549
ACHN = test system: ACHN
CAKI-1 = test system: CAKI-1
CCRF-CEM = test system: CCRF-CEM
COLO 205 = test system: COLO 205
DLD-1 = test system: DLD-1
DMS-114 = test system: DMS-114
DMS-273 = test system: DMS-273
EKVX = test system: EKVX
HCC 2998 = test system: HCC 2998
HCT-116 = test system: HCT-116
HCT-15 = test system: HCT-15
HL-60 = test system: HL-60
HOP-18 = test system: HOP-18
HOP-62 = test system: HOP-62
HOP-92 = test system: HOP-92
HT-29 = test system: HT-29
IGROV-1 = test system: IGROV-1
K562 = test system: K562
KM-20L2 = test system: KM-20L2
KM12 = test system: KM12
LOX IMVI = test system: LOX IMVI
LXFL 529 = test system: LXFL 529
M14 = test system: M14
M19-MEL = test system: M19-MEL
MOLT-4 = test system: MOLT-4
Malme-3M = test system: Malme-3M
NCI-H226 = test system: NCI-H226
NCI-H23 = test system: NCI-H23
NCI-H460 = test system: NCI-H460
NCI-H522 = test system: NCI-H522
OVCAR-3 = test system: OVCAR-3
OVCAR-4 = test system: OVCAR-4
OVCAR-5 = test system: OVCAR-5
OVCAR-8 = test system: OVCAR-8
RPMI-8226 = test system: RPMI-8226
RXF 393 = test system: RXF 393
SF-268 = test system: SF-268
SF-295 = test system: SF-295
SF-539 = test system: SF-539
SK-MEL-28 = test system: SK-MEL-28
SK-MEL-2 = test system: SK-MEL-2
SK-MEL-5 = test system: SK-MEL-5
SK-OV-3 = test system: SK-OV-3
SN12C = test system: SN12C
SNB-19 = test system: SNB-19
SNB-75 = test system: SNB-75
SNB-78 = test system: SNB-78
SR = test system: SR
SW-620 = test system: SW-620
TK-10 = test system: TK-10
U-251 = test system: U-251
UACC-257 = test system: UACC-257
UACC-62 = test system: UACC-62
UO-31 = test system: UO-31
BT-549 = test system: BT-549
DU-145 = test system: DU-145
NCI/ADR-RES = test system: NCI/ADR-RES
PC-3 = test system: PC-3
XF498 = test system: XF498

## O=C1[C@@H]2C(c3ccccc3[N+](=O)[O-])=[N+](c3ccccc3)O[C@@H]2C(=O)N1c1ccc(Cc2ccc(N3C(=O)[C@H]4C(c5ccccc5[N+](=O)[O-])=[N+](c5ccccc5)O[C@H]4C3=O)cc2)cc1
786-0
  GI50: > 100 µM (inactive)
A498
  GI50: > 100 µM (inactive)
A549
  GI50: > 100 µM (inactive)
ACHN
  GI50: > 100 µM (inactive)
CAKI-1
  GI50: 77.8 µM (inactive)
CCRF-CEM
  GI50: > 100 µM (inactive)
COLO 205
  GI50: 33.4 µM (inactive)
DLD-1
  GI50: > 100 µM (inactive)
DMS-114
  GI50: > 100 µM (inactive)
DMS-273
  GI50: > 100 µM (inactive)
EKVX
  GI50: > 100 µM (inactive)
HCC 2998
  GI50: > 100 µM (inactive)
HCT-116
  GI50: > 100 µM (inactive)
HCT-15
  GI50: > 100 µM
HL-60
  GI50: > 100 µM (inactive)
HOP-18
  GI50: 85.9 µM (inactive)
HOP-62
  GI50: > 100 µM (inactive)
HOP-92
  GI50: 49 µM (inactive)
HT-29
  GI50: > 100 µM (inactive)
IGROV-1
  GI50: > 100 µM (inactive)
K562
  GI50: > 100 µM (inactive)
KM-20L2
  GI50: > 100 µM (inactive)
KM12
  GI50: > 100 µM (inactive)
LOX IMVI
  GI50: > 100 µM (inactive)
LXFL 529
  GI50: 94.6 µM (inactive)
M14
  GI50: 16.4 µM (inactive)
M19-MEL
  GI50: > 100 µM (inactive)
MOLT-4
  GI50: > 100 µM (inactive)
Malme-3M
  GI50: 27.7 µM (inactive)
NCI-H226
  GI50: 74.8 µM (inactive)
NCI-H23
  GI50: > 100 µM (inactive)
NCI-H460
  GI50: > 100 µM (inactive)
NCI-H522
  GI50: > 100 µM (inactive)
OVCAR-3
  GI50: > 100 µM (inactive)
OVCAR-4
  GI50: > 100 µM (inactive)
OVCAR-5
  GI50: > 100 µM (inactive)
OVCAR-8
  GI50: > 100 µM (inactive)
RPMI-8226
  GI50: > 100 µM (inactive)
RXF 393
  GI50: > 100 µM (inactive)
SF-268
  GI50: > 100 µM (inactive)
SF-295
  GI50: > 100 µM (inactive)
SF-539
  GI50: > 100 µM (inactive)
SK-MEL-28
  GI50: > 100 µM (inactive)
SK-MEL-2
  GI50: > 100 µM (inactive)
SK-MEL-5
  GI50: 43.1 µM (inactive)
SK-OV-3
  GI50: > 100 µM (inactive)
SN12C
  GI50: > 100 µM (inactive)
SNB-19
  GI50: > 100 µM (inactive)
SNB-75
  GI50: > 100 µM (inactive)
SNB-78
  GI50: > 100 µM (inactive)
SR
  GI50: > 100 µM (inactive)
SW-620
  GI50: > 100 µM (inactive)
TK-10
  GI50: > 100 µM (inactive)
U-251
  GI50: > 100 µM (inactive)
UACC-257
  GI50: > 100 µM (inactive)
UACC-62
  GI50: 67.6 µM (inactive)
UO-31
  GI50: > 100 µM (inactive)

## CCc1ccc(NCc2cc(OC)c(OC)c(OC)c2)cc1
ACHN
  GI50: 3.51 µM (inactive)
BT-549
  GI50: < 0.01 µM (active)
CCRF-CEM
  GI50: 0.158 µM (active)
DLD-1
  GI50: 0.592 µM (active)
DMS-114
  GI50: 0.586 µM (active)
DU-145
  GI50: 0.399 µM (active)
EKVX
  GI50: 4.95 µM (inactive)
HCT-116
  GI50: 0.122 µM (active)
HCT-15
  GI50: 0.0847 µM
HL-60
  GI50: 0.0603 µM (active)
HOP-62
  GI50: 0.366 µM (active)
HOP-92
  GI50: 1.09 µM (active)
HT-29
  GI50: 0.105 µM (active)
K562
  GI50: 0.0728 µM (active)
KM-20L2
  GI50: 0.388 µM (active)
KM12
  GI50: 0.0537 µM (active)
M19-MEL
  GI50: 0.579 µM (active)
MOLT-4
  GI50: 0.159 µM (active)
Malme-3M
  GI50: 0.256 µM (active)
NCI-H226
  GI50: 4.65 µM (inactive)
NCI-H23
  GI50: 0.532 µM (active)
NCI-H522
  GI50: 0.109 µM (active)
NCI/ADR-RES
  GI50: < 0.0416 µM (active)
OVCAR-3
  GI50: 0.123 µM (active)
OVCAR-4
  GI50: 26.7 µM (inactive)
OVCAR-5
  GI50: 4.9 µM (inactive)
PC-3
  GI50: 0.186 µM (active)
RPMI-8226
  GI50: 0.303 µM (active)
RXF 393
  GI50: 0.224 µM (active)
SF-295
  GI50: 0.109 µM (active)
SNB-19
  GI50: 0.902 µM (active)
UACC-257
  GI50: 17.2 µM (inactive)
XF498
  GI50: 1.69 µM (inactive)

## CCCCCC(=O)c1ccc2[nH]c3c(C)cc([N+](=O)[O-])c(C)c3c2c1
786-0
  GI50: 36.1 µM (inactive)
A549
  GI50: 49.4 µM (inactive)
ACHN
  GI50: > 100 µM (inactive)
CAKI-1
  GI50: > 100 µM (inactive)
CCRF-CEM
  GI50: 91.2 µM (inactive)
COLO 205
  GI50: 59.6 µM (inactive)
DMS-114
  GI50: > 100 µM (inactive)
DMS-273
  GI50: 27.9 µM (inactive)
EKVX
  GI50: > 100 µM (inactive)
HCC 2998
  GI50: > 100 µM (inactive)
HCT-116
  GI50: 90.8 µM (inactive)
HCT-15
  GI50: > 100 µM
HL-60
  GI50: 98.2 µM (inactive)
HOP-62
  GI50: > 100 µM (inactive)
HT-29
  GI50: 75 µM (inactive)
K562
  GI50: 25.4 µM (inactive)
KM12
  GI50: > 100 µM (inactive)
LOX IMVI
  GI50: > 100 µM (inactive)
M14
  GI50: 70 µM (inactive)
M19-MEL
  GI50: > 100 µM (inactive)
MOLT-4
  GI50: > 100 µM (inactive)
Malme-3M
  GI50: > 100 µM (inactive)
NCI-H226
  GI50: > 100 µM (inactive)
NCI-H23
  GI50: 95.3 µM (inactive)
NCI-H460
  GI50: 82 µM (inactive)
NCI-H522
  GI50: > 100 µM (inactive)
OVCAR-3
  GI50: 67.6 µM (inactive)
OVCAR-4
  GI50: 89.3 µM (inactive)
OVCAR-5
  GI50: > 100 µM (inactive)
OVCAR-8
  GI50: 75.5 µM (inactive)
RPMI-8226
  GI50: > 100 µM (inactive)
SF-268
  GI50: > 100 µM (inactive)
SF-295
  GI50: 94.6 µM (inactive)
SF-539
  GI50: 45.6 µM (inactive)
SK-MEL-28
  GI50: > 100 µM (inactive)
SK-MEL-2
  GI50: > 100 µM (inactive)
SK-MEL-5
  GI50: > 100 µM (inactive)
SN12C
  GI50: > 100 µM (inactive)
SNB-19
  GI50: > 100 µM (inactive)
SNB-75
  GI50: > 100 µM (inactive)
SNB-78
  GI50: > 100 µM (inactive)
SR
  GI50: 56.8 µM (inactive)
SW-620
  GI50: 80.2 µM (inactive)
TK-10
  GI50: 26.6 µM (inactive)
UACC-257
  GI50: > 100 µM (inactive)
UO-31
  GI50: > 100 µM (inactive)
XF498
  GI50: > 100 µM (inactive)

## O=C(c1ccc(Cl)cc1)C1OC12C(=O)Nc1c(Cl)cc(Cl)cc12 (configuration not stated)
786-0
  GI50: 49 µM (inactive)
A498
  GI50: > 100 µM (inactive)
A549
  GI50: 49.9 µM (inactive)
ACHN
  GI50: 92.9 µM (inactive)
CCRF-CEM
  GI50: 22.4 µM (inactive)
DLD-1
  GI50: 87.3 µM (inactive)
DMS-273
  GI50: 65.5 µM (inactive)
EKVX
  GI50: 19.8 µM (inactive)
HCC 2998
  GI50: > 100 µM (inactive)
HCT-15
  GI50: 42.1 µM
HOP-18
  GI50: 36.2 µM (inactive)
HOP-62
  GI50: > 100 µM (inactive)
HT-29
  GI50: 41.2 µM (inactive)
K562
  GI50: 22.3 µM (inactive)
KM-20L2
  GI50: 67.5 µM (inactive)
KM12
  GI50: 48.6 µM (inactive)
LOX IMVI
  GI50: 39.4 µM (inactive)
Malme-3M
  GI50: 71.9 µM (inactive)
NCI-H226
  GI50: 28.3 µM (inactive)
NCI-H23
  GI50: 30.1 µM (inactive)
NCI-H460
  GI50: 50.8 µM (inactive)
OVCAR-3
  GI50: 21.2 µM (inactive)
OVCAR-5
  GI50: > 100 µM (inactive)
OVCAR-8
  GI50: 23 µM (inactive)
RPMI-8226
  GI50: 14.9 µM (inactive)
SF-268
  GI50: 51.9 µM (inactive)
SF-295
  GI50: 46.3 µM (inactive)
SF-539
  GI50: 75 µM (inactive)
SK-MEL-28
  GI50: 94 µM (inactive)
SK-MEL-2
  GI50: 67.5 µM (inactive)
SK-MEL-5
  GI50: 37.5 µM (inactive)
SN12C
  GI50: 54 µM (inactive)
SNB-19
  GI50: 54.3 µM (inactive)
SNB-75
  GI50: 25.9 µM (inactive)
SW-620
  GI50: 40 µM (inactive)
TK-10
  GI50: 51.2 µM (inactive)
U-251
  GI50: 76.7 µM (inactive)
UACC-257
  GI50: 26.9 µM (inactive)
UO-31
  GI50: 63.7 µM (inactive)
XF498
  GI50: 15.3 µM (inactive)
